Laboratory results: patent publication US5834487A, “Inhibition of 26S and 20S proteasome by indanones” (CV Therapeutics, priority 1996, dated 1998)
Residues, ends and D or L forms follow the SMILES beside them.

Experiments:
CaCo cells = assay: Celltiter 96 Aqueous cell proliferation assay, CaCo; type: cell-based; details: 18 hours with compound
Method: (§1) Compounds prepared according to the method of Example 1 were assayed against several different cell lines. Cell monolayers were cultured in the presence of test compound for 18 hours to access their ability to inhibit cell proliferation. Cell proliferation was determined colorimetrically using the Celltiter 96 Aqueous non-radioactive cell proliferation assay (Promega) where cell proliferation is directly proportional to absorbance at 490 nm. Results are quoted as the IC50 in μg/ml for inhibition of cell proliferation in various cell types.

RAW cells = assay: Celltiter 96 Aqueous cell proliferation assay, RAW; type: cell-based; details: 18 hours with compound
Method: as §1

Panc-I cells = assay: Celltiter 96 Aqueous cell proliferation assay, Panc-I; type: cell-based; details: 18 hours with compound
Method: as §1

[1] = system: LPS induced TNF synthesis; assay: Inhibition of LPS induced TNF synthesis in RAW cells (ELISA); type: cell-based; details: 1 hour pretreatment, LPS 100 ng/ml, supernatant after 1 hour
Method: Compounds prepared according to the method of Example 1 were tested for the inhibition of LPS induced TNF synthesis. RAW cells were pretreated with different concentrations of test compound for 1 hour prior to the administration of lipopolysaccharide (100 ng/mi). Cell culture supernatants were harvested after 1 hour and assayed for TNF concentration by ELISA (Biosource)

NF-κB = assay: Inhibition of LPS-induced translocation of NF-κB to the nucleus, gel mobility shift assay; type: cell-based; details: RAW cells, 20 μg/ml for 1 hour, then LPS 100 ng/ml 1 hour (FIG. 3)
Method: RAW cells were treated for 1 hour with compound 187 (20 μg/ml) and then incubated with lipopolysaccharide (100 ng/ml) for a further one hour. Nuclear fractions were prepared according to standard procedures. Binding reactions for gel mobility shift assays contained 5 μg of nuclear extract protein, 50,000 cpm of ^32 P-labeled NF-κB consensus binding oligonucleotide in the presence and absence of a fifty fold excess of unlabeled oligonucleotide.

OVCAR cells = assay: Celltiter 96 Aqueous cell proliferation assay, OVCAR; type: cell-based; details: 18 hours with compound
Method: as §1

[2] = target: T1, 20S catalytic subunit of the proteasome (multicatalytic proteinase complex) (Bos taurus, UniProt Q32KL2); assay: 20S proteasome chymotryptic activity, fluorogenic peptide cleavage; type: biochemical, bovine; details: 50 μM succinyl-leu-leu-val-tyr-7-amino-4-methyl coumarin, 15 minutes at 37° C, pH7.5
T1 construct: was purified to homogeneity from bovine brain according to published methods; from tissue; host or cells: bovine brain
Procedure, shortened: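 Purified bovine-brain 20S proteasome (2 μg) with 0.1-100 μg/ml inhibitor in 50 mM HEPES, 0.1% SDS, pH 7.5. Reaction started with 50 μM Suc-LLVY-AMC, 15 min at 37° C, stopped with pH 4.0 acetate; liberated AMC read by fluorescence (ex 370, em 430 nm).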

p105 to p50 processing = assay: Inhibition of LPS-induced p105 to p50 processing, Western blot of RAW cell lysates; type: cell-based; details: 1 hour pretreatment, anti-p50 Western blot (FIG. 2)
Description: (§2) This Example examines the ability of compound 173 and particularly compound 187 described in Tables 1 & 2 above to inhibit proteasome activity as indicated, in part, by the presence of IκB and/or p105 in inhibited cells. In order for NF-κB to translocate to the nucleus in response to a stimulus such as lipopolysaccharide (LPS) and activate transcription two proteolytic events need to occur, namely degradation of the inhibitory protein IκB and processing of p105 to p50. These proteolytic events serve to unmask the nuclear localization signal of NF-κB.
Compound 187 as described in Tables 1 & 2 above was used to pretreat RAW cells as described above, and whole cell lysates prepared as described above were analyzed for immunoreactivity toward an anti-p50 antibody. The results, set forth in FIG. 2 indicate that p50 and […] are both present in cells treated with as little as 5 μg/ml of compound 187, while in untreated cells, majority of P 105 has been processed to p50.

MCF-7 cells = assay: Celltiter 96 Aqueous cell proliferation assay, MCF-7; type: cell-based; details: MCF-7, 18 hours with compound
Method: as §1

IκB degradation = assay: Inhibition of LPS-induced IκB degradation, Western blot of RAW cell lysates; type: cell-based; details: 1 hour pretreatment, LPS 100 ng/ml 1 hour, anti-IκBα Western blot (FIG. 1)
Description: as §2
RAW cells were pretreated with different concentrations of test compound for 1 hour prior to the administration of lipopolysaccharide (100 ng/ml). Whole cell lysates were harvested after 1 hour, 10 μg, protein was separated by SDS-PAGE, transferred to nitrocellulose and assayed for immunoreactivity with anti-IκBa antibody. Western blots, (See FIG. 1), were visualized using the Boehringer Mannheim Chemiluminescent detection kit.

[3] = target: T2, chymotrypsin-like activity associated with the proteasome (Homo sapiens, UniProt P28074); details: literature values; cited from earlier work
T2 sequence (P28074 60-263): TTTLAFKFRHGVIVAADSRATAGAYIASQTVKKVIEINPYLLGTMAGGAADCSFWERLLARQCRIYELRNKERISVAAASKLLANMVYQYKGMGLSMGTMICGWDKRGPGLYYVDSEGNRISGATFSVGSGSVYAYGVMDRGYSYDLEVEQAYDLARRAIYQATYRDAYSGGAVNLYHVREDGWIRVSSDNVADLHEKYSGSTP

IC50 for inhibition of cell proliferation, CaCo (CaCo cells) | IC50 inhibition of LPS induced TNF synthesis [1] | IC50 for inhibition of cell proliferation, OVCAR (OVCAR cells) | IC50 [2] | IC50 for inhibition of cell proliferation, MCF-7 (MCF-7 cells) | Compound | IC50 for inhibition of cell proliferation, RAW (RAW cells) | IC50 for inhibition of cell proliferation, Panc-I (Panc-I cells) | accumulation of NF-κB in the nucleus of cells (NF-κB) | concentration at which p50 and p150 are both present in treated cells (p105 to p50 processing) | concentration at which IκB is present in treated cells (IκB degradation) | Ki [3]
8 µg/mL | 5 µg/mL | 5 µg/mL | 0.5 µg/mL | 6 µg/mL | COc1ccc2c(c1)C(CC(=O)NC(CC(C)C)C(=O)NC(CC(C)C)C(=O)NC1CCc3ccccc31)CC2=O (mixture of isomers) [Compound 187] | 10 µg/mL | 7 µg/mL | effective in inhibiting the accumulation of NF-κB in the nucleus of cells | ≤ 5 µg/mL | ≤ 5 µg/mL | –
17 µg/mL | 5 µg/mL | 8 µg/mL | 0.5 µg/mL | 10 µg/mL | COc1ccc2c(c1)C(CC(=O)NC(CC(C)C)C(=O)NC(CC(C)C)C(=O)NCc1ccccc1)CC2=O (mixture of isomers) [Compound 173] | 20 µg/mL | 17 µg/mL | – | – | ≤ 5 µg/mL | –
– | – | – | – | – | CSCC[C@@H](C=O)NC(=O)[C@H](CC(C)C)NC(=O)[C@H](CC(C)C)NC(C)=O [LLM, N-acetyl-L-leucinyl-L-leucinyl-methional] (Ac-Leu-Leu-Met-aldehyde) | – | – | – | – | – | 140 nM
– | – | – | – | – | N-acetyl-L-leucinyl-L-leucinal-L-norleucinal [ALLN] | – | – | – | – | – | 140 nM
